Results published in patent US10212936B2, “Molecules having pesticidal utility, and intermediates, compositions, and processes, related thereto” (priority 2014, dated 2019).

Legend:
Format in all cases: in vivo
[1] = test system: Beet Armyworm (Spodoptera exigua, LAPHEG); test: Bioassay on Beet Armyworm (BAW), 128-well diet tray assay; conditions: 168 h, 50 μg/cm^2 on artificial diet, second instar larvae, five to seven days, 25° C., read-out: BAW % Control (or Mortality) rating
Experimental: (§1) Example A: Bioassays on Beet Armyworm (Spodoptera exigua, LAPHEG) (“BAW”), Corn Earworm (Helicoverpa zea, HELIZE) (“CEW”), and Cabbage Looper (Trichoplusia ni, TRIPNI) (“CL”)
(§2) Certain molecules disclosed in this document were tested against BAW, CEW, and CL using procedures described in the following examples. In the reporting of the results, the “BAW, CEW, & CL Rating Table” was used (See Table Section).
Bioassays on BAW were conducted using a 128-well diet tray assay. one to five second instar BAW larvae were placed in each well (3 mL) of the diet tray that had been previously filled with 1 mL of artificial diet to which 50 μg/cm^2 of the test molecule (dissolved in 50 μL of 90:10 acetone-water mixture) had been applied (to each of eight wells) and then allowed to dry. Trays were covered with a clear self-adhesive cover and held at 25° C., 14:10 light-dark for five to seven days. Percent mortality was recorded for the larvae in each well; activity in the eight wells was then averaged. The results are indicated in the table entitled “Table ABC: Biological Results” (See Table Section).

[2] = test system: Cabbage Looper (Trichoplusia ni, TRIPNI); test: Bioassay on Cabbage Looper (CL), 128-well diet tray assay; conditions: 168 h, 50 μg/cm^2 on artificial diet, second instar larvae, five to seven days, 25° C., read-out: CL % Control (or Mortality) rating
Experimental: as §1, §2
Bioassays on CL were conducted using a 128-well diet tray assay. one to five second instar CL larvae were placed in each well (3 mL) of the diet tray that had been previously filled with 1 mL of artificial diet to which 50 μg/cm^2 of the test molecule (dissolved in 50 μL of 90:10 acetone-water mixture) had been applied (to each of eight wells) and then allowed to dry. Trays were covered with a clear self-adhesive cover and held at 25° C., 14:10 light-dark for five to seven days. Percent mortality was recorded for the larvae in each well; activity in the eight wells was then averaged. The results are indicated in the table entitled “Table ABC: Biological Results” (See Table Section).

[3] = test system: Yellow Fever Mosquito (Aedes aegypti, AEDSAE); test: Bioassay on Yellow Fever Mosquito (YFM) larvae, 96-well plate; conditions: about 1 day-old larvae, 4000 ppm DMSO master plate diluted, graded after 3 days
Experimental: Example C: Bioassays on Yellow Fever Mosquito (Aedes aegypti, AEDSAE) (“YFM”)
Certain molecules disclosed in this document were tested against YFM using procedures described in the following paragraph. In the reporting of the results, the “YFM Rating Table” was used (See Table Section).
Master plates containing 400 μg of a molecule dissolved in 100 μL of dimethyl sulfoxide (DMSO) (equivalent to a 4000 ppm solution) are used. A master plate of assembled molecules contains 15 μL per well. To this plate, 135 μL of a 90:10 water:acetone mixture is added to each well. A robot (Biomek® NXP Laboratory Automation Workstation) is programmed to dispense 15 μL aspirations from the master plate into an empty 96-well shallow plate (“daughter” plate). There are 6 reps (“daughter” plates) created per master. The created daughter plates are then immediately infested with YFM larvae.
The day before plates are to be treated, mosquito eggs are placed in Millipore water containing liver powder to begin hatching (4 g. into 400 mL). After the daughter plates are created using the robot, they are infested with 220 μL of the liver powder/larval mosquito mixture (about 1 day-old larvae). After plates are infested with mosquito larvae, a non-evaporative lid is used to cover the plate to reduce drying. Plates are held at room temperature for 3 days prior to grading. After 3 days, each well is observed and scored based on mortality. The results are indicated in the table entitled “Table ABC: Biological Results” (See Table Section).

In the case of CCOC(=O)c1c(C)csc1NC(=O)Nc1ccc(-c2ncn(-c3ccc(OC(F)(F)F)cc3)n2)cc1 [F1, ethyl 4-methyl-2-(3-(4-(1-(4-(trifluoromethoxy)phenyl)-1H-1,2,4-triazol-3-yl)phenyl)ureido)thiophene-3-carboxylate], the mortality at 50 µg/cm2 [1] is reported as 0%, the mortality at 50 µg/cm2 [2] is reported as 0% and the “YFM % Control (or Mortality) rating” value [3] is reported as “D (No activity noticed in this bioassay)”.
CCOC(=O)c1cnn(-c2ccc(Cl)cc2C)c1NC(=O)Nc1ccc(-c2ncn(-c3ccc(OC(F)(F)F)cc3)n2)cc1 [F2, Ethyl 1-(4-chloro-2-methylphenyl)-5-(3-(4-(1-(4-(trifluoromethoxy)phenyl)-1H-1,2,4-triazol-3-yl)phenyl)ureido)-1H-pyrazole-4-carboxylate] was tested, and the mortality at 50 µg/cm2 [1] was 0%, the mortality at 50 µg/cm2 [2] was 0% and the “YFM % Control (or Mortality) rating” value [3] was “D (No activity noticed in this bioassay)”.
CC(C)CC(C)c1sccc1NC(=O)Nc1ccc(-c2ncn(-c3ccc(OC(F)(F)F)cc3)n2)cc1 (stereo not drawn) [F8, 1-(2-(4-Methylpentan-2-yl)thiophen-3-yl)-3-(4-(1-(4-(trifluoromethoxy)phenyl)-1H-1,2,4-triazol-3-yl)phenyl)urea] was tested, and the mortality at 50 µg/cm2 [1] was 0%, the mortality at 50 µg/cm2 [2] was 50 to 100% and the “YFM % Control (or Mortality) rating” value [3] was “D (No activity noticed in this bioassay)”.
O=C(Nc1ccc(-c2ncn(-c3ccc(OC(F)(F)F)cc3)n2)cc1)Nc1ccnn1-c1ccccc1 [F10, 1-(1-Phenyl-1H-pyrazol-5-yl)-3-(4-(1-(4-(trifluoromethoxy)phenyl)-1H-1,2,4-triazol-3-yl)phenyl)urea] was tested, and the mortality at 50 µg/cm2 [1] was 50 to 100%, the mortality at 50 µg/cm2 [2] was 50 to 100% and the “YFM % Control (or Mortality) rating” value [3] was “D (No activity noticed in this bioassay)”.
O=C(Nc1ccc(-c2ncn(-c3ccc(OC(F)(F)F)cc3)n2)cc1)Nc1nccn1-c1cc(Cl)cc(Cl)c1 [F28, 1-(1-(3,5-Dichlorophenyl)-1H-imidazol-2-yl)-3-(4-(1-(4-(trifluoromethoxy)phenyl)-1H-1,2,4-triazol-3-yl)phenyl)urea] showed a mortality at 50 µg/cm2 [1] of 50 to 100% and a mortality at 50 µg/cm2 [2] of 0%.
O=C(Nc1ccc(-c2ncn(-c3ccc(OC(F)(F)F)cc3)n2)cc1)Nc1nccn1-c1cccnc1 [F32, 1-(1-(Pyridin-3-yl)-1H-imidazol-2-yl)-3-(4-(1-(4-(trifluoromethoxy)phenyl)-1H-1,2,4-triazol-3-yl)phenyl)urea] gave a mortality at 50 µg/cm2 [1] of 50 to 100% and a mortality at 50 µg/cm2 [2] of 0 to 50%.
In the case of COc1ccc(-c2ncsc2NC(=O)Nc2ccc(-c3ncn(-c4ccc(OC(F)(F)F)cc4)n3)cc2)c(C)c1 [F46, 1-(4-(4-Methoxy-2-methylphenyl)thiazol-5-yl)-3-(4-(1-(4-(trifluoromethoxy)phenyl)-1H-1,2,4-triazol-3-yl)phenyl)urea], the mortality at 50 µg/cm2 [1] is reported as 50 to 100%, the mortality at 50 µg/cm2 [2] is reported as 50 to 100% and the “YFM % Control (or Mortality) rating” value [3] is reported as “A (80-100)”.
Cc1ccc(C)c(-c2ncsc2NC(=O)Nc2ccc(-c3ncn(-c4ccc(OC(F)(F)F)cc4)n3)cc2)c1 [F47, 1-(4-(2,5-Dimethylphenyl)thiazol-5-yl)-3-(4-(1-(4-(trifluoromethoxy)phenyl)-1H-1,2,4-triazol-3-yl)phenyl)urea] was tested, and the mortality at 50 µg/cm2 [1] was 50 to 100%, the mortality at 50 µg/cm2 [2] was 50 to 100% and the “YFM % Control (or Mortality) rating” value [3] was “A (80-100)”.
For O=C(Nc1ccc(-c2ncn(-c3ccc(OC(F)(F)F)cc3)n2)cc1)Nc1scnc1-c1c(Cl)cccc1Cl [F48, 1-(4-(2,6-Dichlorophenyl)thiazol-5-yl)-3-(4-(1-(4-(trifluoromethoxy)phenyl)-1H-1,2,4-triazol-3-yl)phenyl)urea], the “YFM % Control (or Mortality) rating” value [3] was “A (80-100)”.
In the case of CCc1ccccc1-c1ncsc1NC(=O)Nc1ccc(-c2ncn(-c3ccc(OC(F)(F)F)cc3)n2)cc1 [F49, 1-(4-(2-ethylphenyl)thiazol-5-yl)-3-(4-(1-(4-(trifluoromethoxy)phenyl)-1H-1,2,4-triazol-3-yl)phenyl)urea], the mortality at 50 µg/cm2 [1] is reported as 50 to 100% and the mortality at 50 µg/cm2 [2] is reported as 50 to 100%.
O=C(NCCc1ccc(-c2ncn(-c3ccc(OC(F)(F)F)cc3)n2)cc1)Nc1nccs1 [F50, 1-(thiazol-2-yl)-3-(4-(1-(4-(trifluoromethoxy)phenyl)-1H-1,2,4-triazol-3-yl)phenethyl)urea] was tested, and the mortality at 50 µg/cm2 [1] was 0%, the mortality at 50 µg/cm2 [2] was 0% and the “YFM % Control (or Mortality) rating” value [3] was “D (No activity noticed in this bioassay)”.
O=C(NCCc1ccc(-c2ncn(-c3ccc(OC(F)(F)F)cc3)n2)cc1)Nc1ccnn1-c1ccccc1 [F51, 1-(1-phenyl-1H-pyrazol-5-yl)-3-(4-(1-(4-(trifluoromethoxy)phenyl)-1H-1,2,4-triazol-3-yl)phenethyl)urea] was tested, and the mortality at 50 µg/cm2 [1] was 0% and the mortality at 50 µg/cm2 [2] was 0%.
With Cc1cc(C)c(C2=C(NC(=O)NCCc3ccc(-c4ncn(-c5ccc(OC(F)(F)F)cc5)n4)cc3)OCC2=O)c(C)c1 [F53, 1-(3-mesityl-4-oxo-4,5-dihydrofuran-2-yl)-3-(4-(1-(4-(trifluoromethoxy)phenyl)-1H-1,2,4-triazol-3-yl)phenethyl)urea] the mortality at 50 µg/cm2 [1] was 0 to 50%, the mortality at 50 µg/cm2 [2] was 50 to 100% and the “YFM % Control (or Mortality) rating” value [3] was “A (80-100)”.
In the case of O=C(NCCc1ccc(-c2ncn(-c3ccc(OC(F)(F)F)cc3)n2)cc1)NC1=C(c2c(Cl)cccc2Cl)C(=O)CO1 [F54, 1-(3-(2,6-Dichlorophenyl)-4-oxo-4,5-dihydrofuran-2-yl)-3-(4-(1-(4-(trifluoromethoxy)phenyl)-1H-1,2,4-triazol-3-yl)phenethyl)urea], the mortality at 50 µg/cm2 [1] is reported as 0%, the mortality at 50 µg/cm2 [2] is reported as 0% and the “YFM % Control (or Mortality) rating” value [3] is reported as “A (80-100)”.
Cc1cccc(C)c1C1=C(NC(=O)NCCc2ccc(-c3ncn(-c4ccc(OC(F)(F)F)cc4)n3)cc2)OCC1=O [F55, 1-(3-(2,6-Dimethylphenyl)-4-oxo-4,5-dihydrofuran-2-yl)-3-(4-(1-(4-(trifluoromethoxy)phenyl)-1H-1,2,4-triazol-3-yl)phenethyl)urea] was tested, and the mortality at 50 µg/cm2 [1] was 50 to 100%, the mortality at 50 µg/cm2 [2] was 0% and the “YFM % Control (or Mortality) rating” value [3] was “A (80-100)”.
Cc1ccc(C)c(C2=C(NC(=O)NCCc3ccc(-c4ncn(-c5ccc(OC(F)(F)F)cc5)n4)cc3)OCC2=O)c1 [F56, 1-(3-(2,5-Dimethylphenyl)-4-oxo-4,5-dihydrofuran-2-yl)-3-(4-(1-(4-(trifluoromethoxy)phenyl)-1H-1,2,4-triazol-3-yl)phenethyl)urea] was tested, and the mortality at 50 µg/cm2 [1] was 50 to 100%, the mortality at 50 µg/cm2 [2] was 50 to 100% and the “YFM % Control (or Mortality) rating” value [3] was “A (80-100)”.
Cc1ccc(C)c(-c2c(NC(=O)NCCc3ccc(-c4ncn(-c5ccc(OC(F)(F)F)cc5)n4)cc3)on(C)c2=O)c1 [F57, 1-(4-(2,5-Dimethylphenyl)-2-methyl-3-oxo-2,3-dihydroisoxazol-5-yl)-3-(4-(1-(4-(trifluoromethoxy)phenyl)-1H-1,2,4-triazol-3-yl)phenethyl)urea] was tested, and the mortality at 50 µg/cm2 [1] was 50 to 100%, the mortality at 50 µg/cm2 [2] was 50 to 100% and the “YFM % Control (or Mortality) rating” value [3] was “A (80-100)”.
CC(C)c1ccccc1-c1c(NC(=O)NCCc2ccc(-c3ncn(-c4ccc(OC(F)(F)F)cc4)n3)cc2)on(C)c1=O [F58, 1-(4-(2-Isopropylphenyl)-2-methyl-3-oxo-2,3-dihydroisoxazol-5-yl)-3-(4-(1-(4-(trifluoromethoxy)phenyl)-1H-1,2,4-triazol-3-yl)phenethyl)urea] was tested, and the mortality at 50 µg/cm2 [1] was 50 to 100%, the mortality at 50 µg/cm2 [2] was 50 to 100% and the “YFM % Control (or Mortality) rating” value [3] was “A (80-100)”.
